The values below come from patent EP4800016A1, “METTL3 INHIBITOR” (Hangzhou Bangshun Pharmaceutical Co., Ltd., priority 2023, dated 2025).

Structures are written as SMILES.

Data set [1] in a line: Rat pharmacokinetic test, intravenous injection. Type of data set: in vivo. As to conditions: male, SD, plasma, rats, 2 mg/kg, average of 3 rats. On the procedure:
3.1 Experimental Animals: Male SD rats, weighing 190-230 g, 3 rats per compound 3.2 Experimental Design: All animals were fasted overnight (10-14 hours) the day before admin istration and fed 4 hours after admin istration. For intravenous injection, the drug vehicle was 5% DMA + 5% Solutol + 90% Saline (DMA: dimethylacetamide; Solutol: polyethyleneglycol-15-hydroxystearate; Saline: normal saline), with a dosage of 2 mg/kg and an admin istration concentration of 1 mg/mL. Blood samples were collected via the jugular vein at 5 min, 15 min, 30 min, 1 h, 2 h, 4 h, 6 h, 8 h, and 24 h after admin istration. Approximately 0.25 mL of each sample was collected, anticoagulated with EDTA-K2, placed on ice after collection, and centrifuged to separate plasma within 1 hour (6000 g, 3 min, 2-8°C). Plasma samples were stored in a - 80°Crefrigerator before analys is.
3.3 Result Analys is:Collected samples were detected using LC-MS/MS method. Pharmacokinetic parameters were calculated from blood drug concentration data at different time points using Phoenix WinNonlin 8.2.0 to obtain the average values of in vivo clearance (CL) and AUC0-t. Table 3 CL and AUC of test compounds after intravenous injection in rats

In data set [2] the test system is Kasumi-1 cells. Briefly: Kasumi-1 cell inhibitory activity (CellTiter-Glo, 5 days). As to conditions: Homo sapiens, 120 h, 5 days incubation, CellTiter-Glo luminescence. Type of data set: cell-based. As for the experimental part: Test compounds were dissolved in DMSO to prep are a 250×final concentration solution. The initial concentration was 10 µM with 3-fold dilution, resulting in a total of ten concentration points. 4 µL of the compound solution was added to 96 µL of cell culture medium to dilute it to 10×the final concentration. On the first day, Kasumi-1 cells (purchased from Precedo) were suspended in cell culture medium at the desired density, 90 µL of the cell suspension was added to a 96-well plate, and 10 µL of 10×compound solution was added for incubation, with a final DMSO concentration of 0.4% in each well. Incubated at 37 °C, 5% CO2 for 5 days. Before measurement after 5 days, the test plate was placed at room temperature, 50 µL of CellTiter-Glo® reagent (purchased from Promega, Cat. No. G7573) was added, mixed on a shaker for 2 minutes to lyse the cells, and incubated at room temperature for 10 minutes to stabilize the […] signal. Luminescence values were recorded using Paradigm, and the response-concentration curve was fitted with Graphpad Pr ism 8.0 to calculate IC50values. The results of each compound are shown in Table2, where A indicates <100nM, B indicates 100-1000nM, and C indicates >1000nM. [formula]

For data set [3], the target named is T1, METTL3/14 (Homo sapiens, UniProt Q86U44).
T1 construct: purchased active motif 31570
Briefly: METTL3/14 methyltransferase activity assay (HTRF). It is filed as biochemical. As to conditions: 10 concentrations, 3-fold dilution from 10 µM. The essentials: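 METTL3/14 preincubated with compound (10-point 3-fold series from 10 µM final top) 10 min at 25°C, then biotinylated substrate plus SAM for 60 min. Methylation read by HTRF with YTHDF1, streptavidin-Tb and anti-Flag acceptor after 60 min at 25°C.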

T1 sequence (Q86U44 whole entry): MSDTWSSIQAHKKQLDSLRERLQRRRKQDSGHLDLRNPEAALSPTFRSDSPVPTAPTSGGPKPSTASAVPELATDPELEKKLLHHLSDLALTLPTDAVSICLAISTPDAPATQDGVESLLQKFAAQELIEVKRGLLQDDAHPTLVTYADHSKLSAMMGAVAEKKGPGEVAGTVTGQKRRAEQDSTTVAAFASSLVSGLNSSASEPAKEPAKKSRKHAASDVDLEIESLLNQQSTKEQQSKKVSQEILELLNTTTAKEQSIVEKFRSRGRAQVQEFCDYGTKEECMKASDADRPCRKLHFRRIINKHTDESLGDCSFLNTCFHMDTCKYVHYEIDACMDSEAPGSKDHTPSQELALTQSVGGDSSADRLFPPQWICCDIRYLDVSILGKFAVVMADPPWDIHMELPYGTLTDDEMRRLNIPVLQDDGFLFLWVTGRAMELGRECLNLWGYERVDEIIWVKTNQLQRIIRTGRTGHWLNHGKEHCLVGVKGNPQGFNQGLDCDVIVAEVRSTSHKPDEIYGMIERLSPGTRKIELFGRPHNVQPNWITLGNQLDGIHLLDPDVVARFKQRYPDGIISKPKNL
T1 sequence (Q9HCE5 whole entry partner): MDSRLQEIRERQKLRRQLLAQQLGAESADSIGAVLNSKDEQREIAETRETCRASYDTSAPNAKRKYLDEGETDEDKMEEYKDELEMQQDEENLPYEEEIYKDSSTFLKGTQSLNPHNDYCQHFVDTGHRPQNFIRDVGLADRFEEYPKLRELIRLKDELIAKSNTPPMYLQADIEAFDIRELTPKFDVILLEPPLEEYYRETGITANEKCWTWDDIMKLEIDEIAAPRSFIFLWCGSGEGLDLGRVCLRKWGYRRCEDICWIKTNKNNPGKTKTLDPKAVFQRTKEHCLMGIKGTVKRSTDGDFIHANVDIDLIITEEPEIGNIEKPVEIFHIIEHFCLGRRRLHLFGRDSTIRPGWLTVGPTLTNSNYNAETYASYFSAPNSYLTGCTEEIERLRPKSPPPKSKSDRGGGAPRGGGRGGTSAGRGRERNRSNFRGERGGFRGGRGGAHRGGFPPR

In data set [1], `O=C(NCc1ccc2cc(CNCC3CC(F)(F)C3)[nH]c2c1)c1cc(=O)n2cc3c(cc2n1)OCCO3` [Example 24, N-((2-((((3,3-Difluorocyclobutyl)methyl)amino)methyl)-1H-indol-6-yl)methyl)-9-oxo-2,3-dihydro-9H-[1,4]dioxino[2',3':4,5]pyrido[1,2-a]pyrimidine-7-carboxamide] yielded an AUC(0-t) of 2180 ng·h/mL and a clearance of 15.3 mL/min/kg. For the same molecule, in data set [2], the IC50 fell in the range of 100 to 1000 nM. The IC50 in data set [3] was < 10 nM.

For `O=C(NCc1ccc2cc(CNCC3CCC3)[nH]c2c1)c1cc(=O)n2cc3c(cc2n1)OCO3` [Example 25, N-((2-(((Cyclobutylmethyl)amino)methyl)-1H-indol-6-yl)methyl)-8-oxo-8H-[1,3]dioxolo[4',5':4,5]pyrido[1,2-a]pyrimidine-6-carboxamide], the AUC(0-t) in data set [1] turned out to be 1460 ng·h/mL. This molecule returned a clearance in data set [1] of 22.7 mL/min/kg. The concentration for half-maximal inhibition (IC50) in data set [2] was 100 to 1000 nM; in data set [3], < 10 nM.

In data set [1], `O=C(NCc1cc2[nH]c(CNCC3CCC3)cc2cc1F)c1cc(=O)n2cc3c(cc2n1)OCO3` [Example 73, N-((2-(((Cyclobutylmethyl)amino)methyl)-5-fluoro-1H-indol-6-yl)methyl)-8-oxo-8H-[1,3]dioxolo[4',5':4,5]pyrido[1,2-a]pyrimidine-6-carboxamide] came in with an area under the curve AUC(0-t) of 1440 ng·h/mL. Besides, the clearance in data set [1] is 23 mL/min/kg. Further, the IC50 was 100 to 1000 nM in data set [2] and < 10 nM in data set [3].

In data set [1], `[2H]C([2H])(NCc1cc2cc(F)c(CNC(=O)c3cc(=O)n4cc5c(cc4n3)OCO5)cc2[nH]1)C1CCC1` [Example 88, N-((2-(((Cyclobutylmethyl-d2)amino)methyl)-5-fluoro-1H-indol-6-yl)methyl)-8-oxo-8H-[1,3]dioxolo[2',3':4,5]pyrido[1,2-a]pyrimidine-6-carboxamide] had an AUC(0-t) of 1710 ng·h/mL and a clearance of 19.1 mL/min/kg. For the same molecule, the IC50 in data set [2] was < 100 nM. The IC50 in data set [3] is < 10 nM.

As for `[2H]C([2H])(NCc1cc2cc(F)c(CNC(=O)c3cc(=O)n4cc5c(cc4n3)OCO5)cc2[nH]1)C12CC(F)(C1)C2` [Example 89, N-((5-Fluoro-2-((((3-fluorobicyclo[1.1.1]pentan-1-yl)methyl-d2)amino)methyl)-1H-indol-6-yl)methyl)-8-oxo-8H-[1,3]dioxolo[2',3':4,5]pyrido[1,2-a]pyrimidine-6-carboxamide], in data set [1], the AUC(0-t) came out at 1210 ng·h/mL and the clearance stood at 28.1 mL/min/kg. The IC50 in data set [2] is < 100 nM. Also, the IC50 in data set [3] is < 10 nM.

Turning to `[2H]C([2H])(NCc1cc2cc(F)c(CNC(=O)c3cc(=O)n4cc5c(cc4n3)OCCO5)cc2[nH]1)C1CCC1` [Example 90, N-((2-(((Cyclobutylmethyl-d2)amino)methyl)-5-fluoro-1H-indol-6-yl)methyl)-9-oxo-2,3-dihydro-9H-[1,4]dioxino[2',3':4,5]pyrido[1,2-a]pyrimidine-7-carboxamide], the IC50 was < 100 nM in data set [2] and < 10 nM in data set [3].

Consider `[2H]C([2H])(NCc1cc2ccc(CNC(=O)c3cc(=O)n4cc5c(cc4n3)OCCO5)cc2[nH]1)C12CC(CO1)C2` [Example 91, N-((2-((((2-Oxabicyclo[2.1.1]hexan-1-yl)methyl-d2)amino)methyl)-1H-indol-6-yl)methyl)-9-oxo-2,3-dihydro-9H-[1,4]dioxino[2',3':4,5]pyrido[1,2-a]pyrimidine-7-carboxamide], for which the IC50 in data set [2] fell in the range of 100 to 1000 nM; in data set [3] it was 10 to 100 nM.

As to `[2H]C([2H])(NCc1cc2ccc(CNC(=O)c3cc(=O)n4cc5c(cc4n3)OCO5)cc2[nH]1)C12CC(CO1)C2` [Example 92, N-((2-((((2-Oxabicyclo[2.1.1]hexan-1-yl)methyl-d2)amino)methyl)-1H-indol-6-yl)methyl)-8-oxo-8H-[1,3]dioxolo[4',5':4,5]pyrido[1,2-a]pyrimidine-6-carboxamide], the results for the IC50 in data set [2] and in data set [3] were 100 to 1000 nM and 10 to 100 nM, respectively.

On to `[2H]C([2H])(NCc1cc2cc(F)c(CNC(=O)c3cc(=O)n4cc5c(cc4n3)OCO5)cc2[nH]1)C12CC(CO1)C2` [Example 93, N-((2-((((2-Oxabicyclo[2.1.1]hexan-1-yl)methyl-d2)amino)methyl)-5-fluoro-1H-indol-6-yl)methyl)-8-oxo-8H-[1,3]dioxolo[4',5':4,5]pyrido[1,2-a]pyrimidine-6-carboxamide], for which the IC50 in data set [2] fell in the range of 100 to 1000 nM; in data set [3], 10 to 100 nM.

With `[2H]C([2H])(NCc1cc2cc(F)c(CNC(=O)c3cc(=O)n4cc5c(cc4n3)OCCO5)cc2[nH]1)C12CC(F)(C1)C2` [Example 94, N-((5-fluoro-2-((((3-fluorobicyclo[1.1.1]pentan-1-yl)methyl-d2)amino)methyl)-1H-indol-6-yl)methyl)-9-oxo-2,3-dihydro-9H-[1,4]dioxino[2',3':4,5]pyrido[1,2-a]pyrimidine-7-carboxamide], in data set [1], the AUC(0-t) came out at 1120 ng·h/mL and the clearance is 28.5 mL/min/kg. The half-maximal inhibitory concentration (IC50) in data set [2] was < 100 nM. Moreover, in data set [3], the IC50 is < 10 nM.

As to `[2H]C([2H])(NCc1cc2ccc(CNC(=O)c3cc(=O)n4cc5c(cc4n3)OCCO5)cc2[nH]1)C12CC(F)(C1)C2` [Example 95, N-((2-((((3-fluorobicyclo[1.1.1]pentan-1-yl)methyl-d2)amino)methyl)-1H-indol-6-yl)methyl)-9-oxo-2,3-dihydro-9H-[1,4]dioxino[2',3':4,5]pyrido[1,2-a]pyrimidine-7-carboxamide], the IC50 is < 100 nM in data set [2] and < 10 nM in data set [3].
